Like-named read-outs stand apart in the source and are kept apart here.
Experiments:
Nav 1.7 = Nav 1.7 (Homo sapiens (Human), UniProt Q15858); assay: Inhibition of sodium channels, Red Membrane Potential Dye FLIPR assay, veratridine depolarization; format: cell-based; details: HEK-293 cells overexpressing the channel; for IC50: read-out: Nav1.7 IC50
Nav 1.5 = Nav 1.5 (Homo sapiens (Human), UniProt Q14524); assay: as above; format: cell-based; details: HEK-293 cells overexpressing the channel
[1] = read-out: Nav1.5 IC50 (bound given in μM)

Chain of Nav 1.7 (Q15858 whole entry): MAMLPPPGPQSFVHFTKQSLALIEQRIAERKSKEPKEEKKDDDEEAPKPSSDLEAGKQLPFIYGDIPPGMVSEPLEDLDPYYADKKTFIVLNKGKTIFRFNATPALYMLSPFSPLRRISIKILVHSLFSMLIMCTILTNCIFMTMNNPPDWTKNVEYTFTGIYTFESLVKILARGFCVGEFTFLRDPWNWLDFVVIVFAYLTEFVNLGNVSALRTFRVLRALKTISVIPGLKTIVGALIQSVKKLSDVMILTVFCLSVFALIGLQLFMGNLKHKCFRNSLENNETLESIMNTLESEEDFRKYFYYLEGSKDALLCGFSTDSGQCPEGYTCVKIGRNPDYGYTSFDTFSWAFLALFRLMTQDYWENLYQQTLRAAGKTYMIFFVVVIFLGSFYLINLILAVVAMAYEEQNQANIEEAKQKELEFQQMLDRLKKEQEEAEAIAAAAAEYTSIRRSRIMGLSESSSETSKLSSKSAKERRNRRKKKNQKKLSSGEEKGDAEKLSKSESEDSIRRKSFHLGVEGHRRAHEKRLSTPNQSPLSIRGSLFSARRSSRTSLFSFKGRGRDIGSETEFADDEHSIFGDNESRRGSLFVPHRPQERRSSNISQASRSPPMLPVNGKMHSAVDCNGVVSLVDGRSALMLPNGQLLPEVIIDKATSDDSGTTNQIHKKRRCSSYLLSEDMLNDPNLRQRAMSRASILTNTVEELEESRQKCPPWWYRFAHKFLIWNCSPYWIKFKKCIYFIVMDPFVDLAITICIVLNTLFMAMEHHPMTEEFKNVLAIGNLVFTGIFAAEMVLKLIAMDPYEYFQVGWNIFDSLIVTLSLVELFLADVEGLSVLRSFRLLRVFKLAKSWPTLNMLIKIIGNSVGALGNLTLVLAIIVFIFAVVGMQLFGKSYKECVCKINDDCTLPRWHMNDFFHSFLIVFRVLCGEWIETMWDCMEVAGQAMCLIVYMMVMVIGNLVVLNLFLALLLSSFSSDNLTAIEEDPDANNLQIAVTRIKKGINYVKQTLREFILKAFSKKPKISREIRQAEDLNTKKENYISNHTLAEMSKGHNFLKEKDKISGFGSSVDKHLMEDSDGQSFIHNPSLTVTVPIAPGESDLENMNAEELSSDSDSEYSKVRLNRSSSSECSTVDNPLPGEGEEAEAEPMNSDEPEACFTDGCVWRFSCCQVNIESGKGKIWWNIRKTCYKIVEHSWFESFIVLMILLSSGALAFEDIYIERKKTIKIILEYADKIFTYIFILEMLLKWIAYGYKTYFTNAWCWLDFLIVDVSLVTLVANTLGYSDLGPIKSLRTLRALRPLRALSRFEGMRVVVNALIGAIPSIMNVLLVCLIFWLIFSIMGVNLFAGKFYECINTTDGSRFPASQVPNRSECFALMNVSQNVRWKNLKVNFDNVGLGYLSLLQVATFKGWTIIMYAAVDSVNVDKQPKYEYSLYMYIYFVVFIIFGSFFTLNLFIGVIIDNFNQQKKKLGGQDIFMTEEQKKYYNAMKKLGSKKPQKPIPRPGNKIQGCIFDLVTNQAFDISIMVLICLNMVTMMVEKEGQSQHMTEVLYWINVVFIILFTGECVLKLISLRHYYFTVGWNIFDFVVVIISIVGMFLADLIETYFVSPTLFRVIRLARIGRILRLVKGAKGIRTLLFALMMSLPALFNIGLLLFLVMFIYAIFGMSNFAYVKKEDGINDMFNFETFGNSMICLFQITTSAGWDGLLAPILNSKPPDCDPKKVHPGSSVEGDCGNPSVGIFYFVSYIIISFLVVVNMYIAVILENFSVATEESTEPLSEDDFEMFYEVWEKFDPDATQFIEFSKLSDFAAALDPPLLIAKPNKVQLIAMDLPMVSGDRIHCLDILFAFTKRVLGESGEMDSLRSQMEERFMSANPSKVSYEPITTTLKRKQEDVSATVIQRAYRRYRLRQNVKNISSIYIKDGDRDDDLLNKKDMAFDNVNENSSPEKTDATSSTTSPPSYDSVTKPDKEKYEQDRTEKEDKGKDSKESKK
Chain of Nav 1.5 (Q14524 whole entry): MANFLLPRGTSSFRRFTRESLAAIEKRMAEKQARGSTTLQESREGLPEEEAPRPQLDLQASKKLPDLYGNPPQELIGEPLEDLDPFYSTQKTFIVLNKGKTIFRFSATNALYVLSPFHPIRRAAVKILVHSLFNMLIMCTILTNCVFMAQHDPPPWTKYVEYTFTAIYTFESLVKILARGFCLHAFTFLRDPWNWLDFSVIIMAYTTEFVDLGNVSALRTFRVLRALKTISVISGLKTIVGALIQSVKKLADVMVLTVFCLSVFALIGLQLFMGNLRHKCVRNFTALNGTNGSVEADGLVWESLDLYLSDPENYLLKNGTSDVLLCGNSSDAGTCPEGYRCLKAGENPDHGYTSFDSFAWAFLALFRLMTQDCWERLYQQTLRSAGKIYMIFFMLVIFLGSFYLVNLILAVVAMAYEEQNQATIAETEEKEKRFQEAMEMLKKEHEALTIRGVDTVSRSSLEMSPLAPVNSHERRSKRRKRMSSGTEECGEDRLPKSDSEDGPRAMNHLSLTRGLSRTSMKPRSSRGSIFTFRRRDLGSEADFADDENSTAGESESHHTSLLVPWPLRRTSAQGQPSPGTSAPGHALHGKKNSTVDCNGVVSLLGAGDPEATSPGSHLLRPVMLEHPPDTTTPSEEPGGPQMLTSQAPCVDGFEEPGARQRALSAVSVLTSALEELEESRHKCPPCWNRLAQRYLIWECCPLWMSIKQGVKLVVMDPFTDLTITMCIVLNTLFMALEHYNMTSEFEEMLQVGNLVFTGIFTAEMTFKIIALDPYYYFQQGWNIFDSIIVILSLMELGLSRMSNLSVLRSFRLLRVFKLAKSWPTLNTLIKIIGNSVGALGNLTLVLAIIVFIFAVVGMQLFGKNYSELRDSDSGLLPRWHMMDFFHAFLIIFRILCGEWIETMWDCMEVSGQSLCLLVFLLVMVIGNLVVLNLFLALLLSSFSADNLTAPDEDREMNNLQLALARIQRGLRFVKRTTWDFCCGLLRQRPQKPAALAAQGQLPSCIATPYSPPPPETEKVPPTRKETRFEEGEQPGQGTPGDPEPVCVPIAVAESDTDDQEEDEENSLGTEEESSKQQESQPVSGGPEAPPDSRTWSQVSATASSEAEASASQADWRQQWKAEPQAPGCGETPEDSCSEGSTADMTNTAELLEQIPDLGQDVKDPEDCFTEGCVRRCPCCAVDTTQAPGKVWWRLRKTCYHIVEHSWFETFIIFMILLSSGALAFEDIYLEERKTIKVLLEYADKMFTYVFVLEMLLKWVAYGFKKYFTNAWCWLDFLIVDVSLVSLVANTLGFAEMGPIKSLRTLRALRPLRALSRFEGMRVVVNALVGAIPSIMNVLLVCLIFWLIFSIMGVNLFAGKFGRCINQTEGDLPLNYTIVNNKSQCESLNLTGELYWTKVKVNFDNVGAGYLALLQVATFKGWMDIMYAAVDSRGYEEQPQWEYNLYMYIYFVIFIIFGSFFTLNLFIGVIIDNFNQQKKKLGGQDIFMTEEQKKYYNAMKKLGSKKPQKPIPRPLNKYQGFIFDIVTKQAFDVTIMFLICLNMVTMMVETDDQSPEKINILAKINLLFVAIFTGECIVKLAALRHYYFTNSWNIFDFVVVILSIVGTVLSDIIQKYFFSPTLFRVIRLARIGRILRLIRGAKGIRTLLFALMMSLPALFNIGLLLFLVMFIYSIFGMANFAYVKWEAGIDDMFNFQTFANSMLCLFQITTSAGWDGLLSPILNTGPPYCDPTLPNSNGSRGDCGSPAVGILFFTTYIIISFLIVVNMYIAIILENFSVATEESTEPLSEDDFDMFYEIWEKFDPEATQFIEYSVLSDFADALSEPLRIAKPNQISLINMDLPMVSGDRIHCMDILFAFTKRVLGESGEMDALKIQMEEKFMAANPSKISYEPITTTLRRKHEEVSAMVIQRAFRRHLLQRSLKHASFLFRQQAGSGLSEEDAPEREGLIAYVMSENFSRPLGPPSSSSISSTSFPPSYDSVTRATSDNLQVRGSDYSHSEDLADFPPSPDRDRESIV

## O=C1CCCN1c1cc(C(F)(F)F)ccc1[C@@H]1CCOc2cc(S(=O)(=O)Nc3cccc(F)n3)ccc21 [Example 111, (S&R)—N-(6-Fluoropyridin-2-yl)-4-(2-(2-oxopyrrolidin-1-yl)-4-(trifluoromethyl)phenyl)chroman-7-sulfonamide]
Nav 1.7
  IC50: 814 nM
Nav 1.5
  Nav1.5 % inhibition @ 10 μM: 67%

## O=C1CCCN1c1cc(C(F)(F)F)ccc1[C@H]1CCOc2cc(S(=O)(=O)Nc3cccc(F)n3)ccc21 [Example 112, (S&R)—N-(6-Fluoropyridin-2-yl)-4-(2-(2-oxopyrrolidin-1-yl)-4-(trifluoromethyl)phenyl)chroman-7-sulfonamide]
Nav 1.7
  IC50: 801 nM
Nav 1.5
  Nav1.5 % inhibition @ 10 μM: 65%

## O=C1CCCN1c1cc(C(F)(F)F)ccc1[C@@H]1CCOc2cc(S(=O)(=O)Nc3ncc(F)cn3)ccc21 [Example 113, (S&R)—N-(5-fluoropyrimidin-2-yl)-4-(2-(2-oxopyrrolidin-1-yl)-4-(trifluoromethyl)phenyl)chroman-7-sulfonamide]
Nav 1.7; 10 μM
  Nav1.7 inhibition @ 10 μM: 65%
Nav 1.5; [1]
  IC50: > 10 µM

## O=C1CCCN1c1cc(C(F)(F)F)ccc1[C@H]1CCOc2cc(S(=O)(=O)Nc3ncc(F)cn3)ccc21 [Example 114, (S&R)—N-(5-fluoropyrimidin-2-yl)-4-(2-(2-oxopyrrolidin-1-yl)-4-(trifluoromethyl)phenyl)chroman-7-sulfonamide]
Nav 1.7
  IC50: 624 nM
Nav 1.5; [1]
  IC50: > 10 µM

## COCCOc1cc(C(F)(F)F)ccc1[C@@H]1CCOc2cc(S(=O)(=O)Nc3ncccn3)ccc21 [Example 124, (S&R)-4-(2-(2-methoxyethoxy)-4-(trifluoromethyl)phenyl)-N-(pyrimidin-2-yl)chroman-7-sulfonamide]
Nav 1.7
  IC50: 2230 nM
Nav 1.5
  Nav1.5 % inhibition @ 10 μM: 71%

## COCCOc1cc(C(F)(F)F)ccc1[C@H]1CCOc2cc(S(=O)(=O)Nc3ncccn3)ccc21 [Example 125, (S&R)-4-(2-(2-methoxyethoxy)-4-(trifluoromethyl)phenyl)-N-(pyrimidin-2-yl)chroman-7-sulfonamide]
Nav 1.7
  IC50: 395 nM
Nav 1.5; read-out: Nav1.5 IC50
  IC50: 2.64 µM

## COCCCOc1cc(C(F)(F)F)ccc1[C@@H]1CCOc2cc(S(=O)(=O)Nc3ncccn3)ccc21 [Example 130, (S&R)-4-(2-(3-methoxypropoxy)-4-(trifluoromethyl)phenyl)-N-(pyrimidin-2-yl)chroman-7-sulfonamide]
Nav 1.7
  IC50: 1690 nM
Nav 1.5; [1]
  IC50: > 10 µM

## COCCCOc1cc(C(F)(F)F)ccc1[C@H]1CCOc2cc(S(=O)(=O)Nc3ncccn3)ccc21 [Example 131, (S&R)-4-(2-(3-methoxypropoxy)-4-(trifluoromethyl)phenyl)-N-(pyrimidin-2-yl)chroman-7-sulfonamide]
Nav 1.7
  IC50: 53 nM
Nav 1.5
  Nav1.5 % inhibition @ 10 μM: 66%

## COCCCc1cc(C(F)(F)F)ccc1[C@@H]1CCOc2cc(S(=O)(=O)Nc3ncccn3)ccc21 [Example 140, (S&R)-4-(2-(3-methoxypropyl)-4-(trifluoromethyl)phenyl)-N-(pyrimidin-2-yl)chroman-7-sulfonamide]
Nav 1.7
  IC50: 1740 nM
Nav 1.5; [1]
  IC50: > 10 µM

## COCCCc1cc(C(F)(F)F)ccc1[C@H]1CCOc2cc(S(=O)(=O)Nc3ncccn3)ccc21 [Example 141, (S&R)-4-(2-(3-methoxypropyl)-4-(trifluoromethyl)phenyl)-N-(pyrimidin-2-yl)chroman-7-sulfonamide]
Nav 1.7
  IC50: 69 nM
Nav 1.5
  Nav1.5 % inhibition @ 10 μM: 65%

## COCCCCc1cc(C(F)(F)F)ccc1[C@@H]1CCOc2cc(S(=O)(=O)Nc3ncccn3)ccc21 [Example 146, (S&R)-4-(2-(4-methoxybutyl)-4-(trifluoromethyl)phenyl)-N-(pyrimidin-2-yl)chroman-7-sulfonamide]
Nav 1.7
  IC50: 790 nM
Nav 1.5; [1]
  IC50: > 10 µM

## COCCCCc1cc(C(F)(F)F)ccc1[C@H]1CCOc2cc(S(=O)(=O)Nc3ncccn3)ccc21 [Example 147, (S&R)-4-(2-(4-methoxybutyl)-4-(trifluoromethyl)phenyl)-N-(pyrimidin-2-yl)chroman-7-sulfonamide]
Nav 1.7
  IC50: 199 nM
Nav 1.5
  Nav1.5 % inhibition @ 10 μM: 60%

## COCCCCc1cc(C(F)(F)F)ccc1[C@@H]1CCOc2cc(S(=O)(=O)Nc3cccc(F)n3)ccc21 [Example 151, (S&R)—N-(6-fluoropyridin-2-yl)-4-(2-(4-methoxybutyl)-4-(trifluoromethyl)phenyl)chroman-7-sulfonamide]
Nav 1.7
  IC50: 390 nM
Nav 1.5
  Nav1.5 % inhibition @ 10 μM: 57%

## COCCCCc1cc(C(F)(F)F)ccc1[C@H]1CCOc2cc(S(=O)(=O)Nc3cccc(F)n3)ccc21 [Example 152, (S&R)—N-(6-fluoropyridin-2-yl)-4-(2-(4-methoxybutyl)-4-(trifluoromethyl)phenyl)chroman-7-sulfonamide]
Nav 1.7
  IC50: 40 nM
Nav 1.5
  Nav1.5 % inhibition @ 10 μM: 67%

## O=S(=O)(Nc1ncccn1)c1ccc2c(c1)OCC[C@H]2c1ccc(C(F)(F)F)cc1OC1CCOCC1 [Example-168, (R&S)—N-(pyrimidin-2-yl)-4-(2-((tetrahydro-2H-pyran-4-yl)oxy)-4-(trifluoromethyl)phenyl)chroman-7-sulfonamide]
Nav 1.7
  IC50: 3900 nM
Nav 1.5; [1]
  IC50: > 10 µM

## O=S(=O)(Nc1ncccn1)c1ccc2c(c1)OCC[C@@H]2c1ccc(C(F)(F)F)cc1OC1CCOCC1 [Example-169, (R&S)—N-(pyrimidin-2-yl)-4-(2-((tetrahydro-2H-pyran-4-yl)oxy)-4-(trifluoromethyl)phenyl)chroman-7-sulfonamide]
Nav 1.7
  IC50: 43 nM
Nav 1.5; read-out: Nav1.5 IC50
  IC50: 4.89 µM

## O=S(=O)(Nc1ncc(F)cn1)c1ccc2c(c1)OCC[C@H]2c1ccc(C(F)(F)F)cc1OC1CCOCC1 [Example-170, (R&S)—N-(5-fluoropyrimidin-2-yl)-4-(2-((tetrahydro-2H-pyran-4-yl)oxy)-4-(trifluoromethyl)phenyl)chroman-7-sulfonamide]
Nav 1.7
  IC50: 1090 nM
Nav 1.5; [1]
  IC50: > 10 µM

## O=S(=O)(Nc1ncc(F)cn1)c1ccc2c(c1)OCC[C@@H]2c1ccc(C(F)(F)F)cc1OC1CCOCC1 [Example-171, (R&S)—N-(5-fluoropyrimidin-2-yl)-4-(2-((tetrahydro-2H-pyran-4-yl)oxy)-4-(trifluoromethyl)phenyl)chroman-7-sulfonamide]
Nav 1.7
  IC50: 125 nM
Nav 1.5
  Nav1.5 % inhibition @ 10 μM: 53%

## O=S(=O)(Nc1ccncn1)c1ccc2c(c1)OCC[C@H]2c1ccc(C(F)(F)F)cc1OC1CCOCC1 [Example-172, (R&S)—N-(pyrimidin-4-yl)-4-(2-((tetrahydro-2H-pyran-4-yl)oxy)-4-(trifluoromethyl)phenyl)chroman-7-sulfonamide]
Nav 1.7
  IC50: 2740 nM
Nav 1.5; [1]
  IC50: > 10 µM

## O=S(=O)(Nc1ccncn1)c1ccc2c(c1)OCC[C@@H]2c1ccc(C(F)(F)F)cc1OC1CCOCC1 [Example-173, (R&S)—N-(pyrimidin-4-yl)-4-(2-((tetrahydro-2H-pyran-4-yl)oxy)-4-(trifluoromethyl)phenyl)chroman-7-sulfonamide]
Nav 1.7
  IC50: 12 nM
Nav 1.5
  Nav1.5 % inhibition @ 10 μM: 63%

## O=S(=O)(Nc1cccnn1)c1ccc2c(c1)OCC[C@H]2c1ccc(C(F)(F)F)cc1OC1CCOCC1 [Example-174, (R&S)—N-(pyridazin-3-yl)-4-(2-((tetrahydro-2H-pyran-4-yl)oxy)-4-(trifluoromethyl)phenyl)chroman-7-sulfonamide]
Nav 1.7
  IC50: 2460 nM
Nav 1.5; [1]
  IC50: > 10 µM

## O=S(=O)(Nc1cccnn1)c1ccc2c(c1)OCC[C@@H]2c1ccc(C(F)(F)F)cc1OC1CCOCC1 [Example-175, (R&S)—N-(pyridazin-3-yl)-4-(2-((tetrahydro-2H-pyran-4-yl)oxy)-4-(trifluoromethyl)phenyl)chroman-7-sulfonamide]
Nav 1.7
  IC50: 248 nM
Nav 1.5; read-out: Nav1.5 IC50
  IC50: 1.69 µM

## O=S(=O)(Nc1cccc(F)n1)c1ccc2c(c1)OCC[C@H]2c1ccc(C(F)(F)F)cc1OC1CCOCC1 [Example-176, (R&S)—N-(6-fluoropyridin-2-yl)-4-(2-((tetrahydro-2H-pyran-4-yl)oxy)-4-(trifluoromethyl)phenyl)chroman-7-sulfonamide]
Nav 1.7
  IC50: 1310 nM
Nav 1.5
  Nav1.5 % inhibition @ 10 μM: 57%

## O=S(=O)(Nc1cccc(F)n1)c1ccc2c(c1)OCC[C@@H]2c1ccc(C(F)(F)F)cc1OC1CCOCC1 [Example-177, (R&S)—N-(6-fluoropyridin-2-yl)-4-(2-((tetrahydro-2H-pyran-4-yl)oxy)-4-(trifluoromethyl)phenyl)chroman-7-sulfonamide]
Nav 1.7
  IC50: 11 nM
Nav 1.5; read-out: Nav1.5 IC50
  IC50: 0.232 µM

## O=S(=O)(Nc1ncccn1)c1ccc2c(c1)OCCC2c1ccc(C(F)(F)F)cc1O[C@H]1CCOC1 (stereo partly drawn) [Example-178, (R&S)—N-(pyrimidin-2-yl)-4-(2-(((S)-tetrahydrofuran-3-yl)oxy)-4-(trifluoromethyl)phenyl)chroman-7-sulfonamide]
Nav 1.7
  IC50: 149 nM
Nav 1.5; [1]
  IC50: > 10 µM

## O=S(=O)(Nc1ncccn1)c1ccc2c(c1)OCCC2c1ccc(C(F)(F)F)cc1O[C@H]1CCOC1 (stereo partly drawn) [Example-179, (R&S)—N-(pyrimidin-2-yl)-4-(2-(((S)-tetrahydrofuran-3-yl)oxy)-4-(trifluoromethyl)phenyl)chroman-7-sulfonamide]
Nav 1.7
  IC50: 38 nM
Nav 1.5
  Nav1.5 % inhibition @ 10 μM: 64%

## O=S(=O)(Nc1cccc(F)n1)c1ccc2c(c1)OCCC2c1ccc(C(F)(F)F)cc1O[C@H]1CCOC1 (stereo partly drawn) [Example-180, (R&S)—N-(6-fluoropyridin-2-yl)-4-(2-(((S)-tetrahydrofuran-3-yl)oxy)-4-(trifluoromethyl)phenyl)chroman-7-sulfonamide]
Nav 1.7
  IC50: 831 nM
Nav 1.5; [1]
  IC50: > 10 µM

## O=S(=O)(Nc1cccc(F)n1)c1ccc2c(c1)OCCC2c1ccc(C(F)(F)F)cc1O[C@H]1CCOC1 (stereo partly drawn) [Example-181, (R&S)—N-(6-fluoropyridin-2-yl)-4-(2-(((S)-tetrahydrofuran-3-yl)oxy)-4-(trifluoromethyl)phenyl)chroman-7-sulfonamide]
Nav 1.7
  IC50: 0.9 nM
Nav 1.5
  Nav1.5 % inhibition @ 10 μM: 43%

## O=S(=O)(Nc1ncccn1)c1ccc2c(c1)OCCC2c1ccc(C(F)(F)F)cc1O[C@@H]1CCOC1 (stereo partly drawn) [Example-185, (S&R)—N-(pyrimidin-2-yl)-4-(2-(((R)-tetrahydrofuran-3-yl)oxy)-4-(trifluoromethyl)phenyl)chroman-7-sulfonamide]
Nav 1.7
  IC50: 1020 nM
Nav 1.5; [1]
  IC50: > 10 µM
